Experiment [1] has as its target T1, HGFA (Homo sapiens, UniProt Q04756).
T1 construct: His6 tag (N); seven amino acid spacer and seven amino acid TEV cleavage site (N); Honey Bee melittin signal peptide (N); made in house; host or cells: High 5 insect cells (baculovirus; virus raised in Sf9)
T1 sequence (Q04756 373-655): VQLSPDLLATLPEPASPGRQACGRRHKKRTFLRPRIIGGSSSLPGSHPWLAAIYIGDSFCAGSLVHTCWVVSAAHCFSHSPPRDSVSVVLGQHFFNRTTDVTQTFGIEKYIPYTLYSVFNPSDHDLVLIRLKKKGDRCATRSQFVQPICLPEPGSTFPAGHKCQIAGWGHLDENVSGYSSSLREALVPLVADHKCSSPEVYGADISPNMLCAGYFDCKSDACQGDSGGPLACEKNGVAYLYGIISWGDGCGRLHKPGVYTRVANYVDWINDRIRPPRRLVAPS
Put plainly: Chromogenic kinetic enzyme inhibitor assay of HGFA. Conditions: Table 4.1; chromogenic substrate Pefachrome FVIIa. The class given is biochemical. The text has this:
This PCR product was cloned into the SfoI-HindIII sites of a modified pFastBac HT baculovirus expression vector (Addgene, Cambridge, Mass.). This vector contains a six amino His tag followed by a seven amino spacer and a seven amino acid TEV cleavage site placed immediately downstream of the Honey Bee melittin signal peptide. Using a modified Bac to Bac Expression System (Life Technologies, Carlsbad, Calif.), recombinant HGFA bacmids were obtained by transforming DH10Bac Escherichia coli cells. To obtain HGFA containing baculovirus, purified bacmids were transfected into Sf9 insect cells. After 5 days in culture at 27° C., media was harvested from transfected Sf9 cells. This media was used to prepare baculovirus infected insect cells (BIICs). These BIIICs were used to infect High 5 insect cells. Four days post infection, media was harvested and recombinant protein prepared as follows. Media was chilled to 4° C. and spun at 4000×g for 20 minutes (all subsequent steps were performed at 4° C. unless noted). […] Concentrated media was then buffer exchanged in two steps, five volumes of 50 mM Na-phosphate, 500 mM NaCl, pH 6.2, followed by five volumes of 50 mM Na-phosphate, 500 mM NaCl, pH 7.5. […] After mixing this slurry for 12 hours, nickel agarose beads were allowed to settle by gravity and then loaded into a column. Beads were washed with buffer (25 mM Na-phosphate, 500 mM NaCl, 25 mM imidazole, pH 8) and the bound protein eluted using (25 mM Na-phosphate, 500 mM NaCl, 250 mM imidazole, pH 8). Using a Amicon Ultra-4 Centrifugal filters (#UFC801008, Merck Millipore, Ltd., Tullagreen, Ireland), peak protein fractions were concentrated and run over a Superdex-200 10/300 GL column (GE Healthcare Life Sciences, Piscataway, N.J.) in 10 mM Tris, 200 mM NaCl, 0.2 mM EDTA, pH 8. HGFA containing fractions were pooled, concentrated, made 50% glycerol, and stored at minus 20° C. Protein was quantitated using a modified Lowry protein assay (#500-0006, Bio-Rad Laboratories, Hercules, Calif.).
Using Gen 5 2.00 software program (Biotek, Winnoski, Vt.), a four parameter curve fit was used to determine the inhibitor IC50s from a plot of the mean reaction velocity versus the inhibitor concentration. The IC50 values represent the average of three separate experimental determinations.

Experiment [2] deals with T1, HGFA. Description: Fluorescent kinetic enzyme inhibitor assay of HGFA. The format is biochemical. The note with it: Table 4.2; Boc-QLR-AMC substrate; read-out: HGFA Ki. In short, it runs like this:
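Recombinant His-tagged HGFA residues 373-655 from insect cells, with substrate at Km. Inhibitors in 11-point dilutions, 0-20 μM final, 2% DMSO, fluorescence (ex 380/em 460 nm) followed over time at room temperature. IC50 from four-parameter fit of mean velocity, average of three experiments.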

On to `CC(=O)N[C@@H](CC(C)C)C(=O)N[C@@H](CC(C)C)C(=O)N[C@@H](CCCNC(=N)N)C(=O)c1nccs1` [Ac-LLR-kt], for which the IC50 – broadly, the midpoint of a concentration-inhibition curve – against HGFA [1] is 1480 nM. For the same compound, on HGFA [2], the Ki (usually a measure of affinity in units of concentration, obtained from inhibition or displacement) worked out at 253 nM.

With `CC(=O)N[C@@H](CCCCN)C(=O)N[C@@H](CCC(N)=O)C(=O)N[C@@H](CC(C)C)C(=O)N[C@H](CCCNC(=N)N)C(=O)c1nccs1` [Compound 5-1, Ac-KQLdR-kt], on HGFA [1], the IC50 was 5530 nM.

In turn, `CC(=O)N[C@@H](CCCCN)C(=O)N[C@@H](Cc1c[nH]cn1)C(=O)N[C@@H](CC(C)C)C(=O)N[C@@H](CCCNC(=N)N)C(=O)c1nccs1` [Compound 5a, Ac-KHLR(SEQ ID NO: 2)-kt] registered a concentration for half-maximal inhibition (IC50) on HGFA [1] of 650 nM. The Ki on HGFA [2] is 96 nM.

`CC(=O)N[C@@H](CCCCN)C(=O)N[C@@H](Cc1c[nH]cn1)C(=O)N[C@@H](CC(C)C)C(=O)N[C@H](CCCNC(=N)N)C(=O)c1nccs1` [Compound 5a-1, Ac-KHLdR-kt] registered a half-inhibitory concentration (IC50) on HGFA [1] of 10900 nM.

As to `CC(=O)N[C@@H](Cc1c[nH]c2ccccc12)C(=O)N[C@@H](CCC(N)=O)C(=O)N[C@@H](CC(C)C)C(=O)N[C@H](CCCNC(=N)N)C(=O)c1nccs1` [Compound 5b-1, Ac-WQLdR-kt], the IC50 against HGFA [1] is 7120 nM.

On HGFA [1], `CC(=O)N[C@@H](CCCCN)C(=O)N[C@@H](CCC(N)=O)C(=O)N[C@@H](Cc1ccccc1)C(=O)N[C@H](CCCNC(=N)N)C(=O)c1nccs1` [Compound 5c-1, Ac-KQFdR-kt] returned an IC50 of 7820 nM.

On to `CC(=O)N[C@@H](CCCNC(=N)N)C(=O)N[C@@H](CCC(N)=O)C(=O)N[C@@H](CC(C)C)C(=O)N[C@H](CCCNC(=N)N)C(=O)c1nccs1` [Compound 5e-1, Ac-RQLdR-kt], for which the IC50 against HGFA [1] was found to be 3120 nM.

In turn, `CC(=O)N[C@@H](CO)C(=O)N[C@@H](CCC(N)=O)C(=O)N[C@@H](CC(C)C)C(=O)N[C@@H](CCCNC(=N)N)C(=O)c1nccs1` [Compound 5f, Ac-SQLR(SEQ ID NO: 7)-kt] returned an IC50 against HGFA [1] of 180 nM. Moreover, the Ki on HGFA [2] is 182 nM.

`CC(=O)N[C@@H](CO)C(=O)N[C@@H](CCCCN)C(=O)N[C@@H](CC(C)C)C(=O)N[C@H](CCCNC(=N)N)C(=O)c1nccs1` [Compound 6-1, Ac-SKLdR-kt] gave an IC50 against HGFA [1] of 6310 nM.

`CC(=O)N[C@@H](CO)C(=O)N[C@@H](Cc1c[nH]cn1)C(=O)N[C@@H](CC(C)C)C(=O)N[C@H](CCCNC(=N)N)C(=O)c1nccs1` [Compound 6a-1, Ac-SHLdR-kt] yielded an IC50 on HGFA [1] of 21200 nM.

Compound `CC(=O)N[C@@H](Cc1c[nH]c2ccccc12)C(=O)N[C@@H](CCCCN)C(=O)N[C@@H](CC(C)C)C(=O)N[C@H](CCCNC(=N)N)C(=O)c1nccs1` [Compound 6b-1, Ac-WKLdR-kt] showed an IC50 against HGFA [1] of 6500 nM.

In the case of `CC(=O)N[C@@H](CO)C(=O)N[C@@H](CCCCN)C(=O)N[C@@H](Cc1ccccc1)C(=O)N[C@H](CCCNC(=N)N)C(=O)c1nccs1` [Compound 6c-1, Ac-SKFdR-kt], the 50% inhibitory concentration (IC50) on HGFA [1] came out at 10800 nM.

As to `CC(=O)N[C@@H](CO)C(=O)N[C@H](CCCNC(=N)N)C(=O)N[C@@H](CC(C)C)C(=O)N[C@H](CCCNC(=N)N)C(=O)c1nccs1` [Compound 6e-3, Ac-SdRLdR-kt], at HGFA [1], the IC50 is 11900 nM.

`CC(=O)N[C@H](C(=O)N[C@@H](CCCCN)C(=O)N[C@@H](CC(C)C)C(=O)N[C@@H](CCCNC(=N)N)C(=O)c1nccs1)[C@@H](C)O` [Compound 6f, Ac-TKLR(SEQ ID NO: 16)-kt]: the IC50 on HGFA [1] worked out at 567 nM. Also, on HGFA [2], the Ki came to 103 nM.

With `CC(=O)N[C@@H](CCCNC(=N)N)C(=O)N[C@@H](CCCCN)C(=O)N[C@@H](CC(C)C)C(=O)N[C@@H](CCCNC(=N)N)C(=O)c1nccs1` [Compound 6h, Ac-RKLR(SEQ ID NO: 18)-kt], the IC50 against HGFA [1] amounted to 370 nM. The Ki on HGFA [2] was 17 nM.

On HGFA [1], `CC(C)C[C@H](NC(=O)[C@H](CCC(N)=O)NC(=O)[C@@H](N)CCCCN)C(=O)N[C@@H](CCCNC(=N)N)C(=O)c1nccs1` [H-KQLR(SEQ ID NO: 1)-Kt] displayed an IC50 of 440 nM.

`CC(C)C[C@H](NC(=O)[C@H](CCC(N)=O)NC(=O)[C@@H](N)CCCCN)C(=O)N[C@H](CCCNC(=N)N)C(=O)c1nccs1` [H-KQLdR-kt]: the IC50 against HGFA [1] is 11300 nM.

The record behind these values is patent publication US11130780B2, “Inhibitors of growth factor activation enzymes” (Washington University, priority 2015, dated 2021).
